Tests used:
[1] = Body mass and body water compartments (bioimpedance) before and after 7-day supplementation; assay type: in vivo, human; conditions: for Change in extracellular water (ECW) post- vs pre-supplementation / Change in intracellular water (ICW) post- vs pre-supplementation / Change in total body water (TBW) post- vs pre-supplementation: bioimpedance; for Change in extracellular water (ECW) post- vs pre-supplementation / Change in intracellular water (ICW) post- vs pre-supplementation / Change in total body water (TBW) post- vs pre-supplementation / Change in body mass (BM) post- vs pre-supplementation: supplementation week; for Change in body mass (BM) post- vs pre-supplementation: well-trained cyclists, final supplement 5 hours prior
Procedure: (§1) The experimental design and protocol are complicated and is best understood by reference to FIGS. 1 and 2. The study consisted of two supplementation regimens, each lasting 7 days and encompassing four cycle performance trials consisting of 40 min constant-load exercise at 63% WRmax followed by a 16.1 km (10 mile) time trial. Prior to the first of these experimental trials, familiarisation trials were completed until the variability of two consecutive trials was within 5%. Following this familiarisation period, subjects were matched for body mass (BM) and were randomised in a double blind fashion to either a Cr or a placebo (Pl) group. Subjects performed an exercise trial pre- and post-supplementation in both supplementation weeks. The first test was conducted at least 48 hours after each subject's final familiarisation trial. Each supplementation period started on the day after the first test and finished on the day of the second test.
(§2) Cr supplementation consisted of 22.8 g·d^−1 of Cr.H2O (equivalent to 10 g Cr×2 daily) and 140 g of glucose polymer (70 g×2 daily) made up in 2 L of warm to hot water for 6 days. […] Each supplementation was made freshly prior to consumption in order to prevent any degradation of Cr to creatinine (Crn). The Pl supplement consisted of 170 g·d^−1 of glucose polymer (85 g×2 daily). During the first and third week of the experimental regimen, subjects in both groups received either 1 g glycerol (Gly) per·kg BM or an equivalent amount of Pl (sucrose solution) diluted in each supplement. In both post-supplementation trials (days 8 and 22) subjects consumed the appropriate supplement 5 hours prior to exercise. […] All supplements had similar taste, texture and appearance and were placed in generic water bottles to ensure double blind administration. On each of the experimental test days (i.e. days 1, 8, 15, 22) subjects ingested 500 ml of water 3 hours prior to exercise and a further 500 ml of water 1 hour prior to exercise to ensure subjects were adequately hydrated prior to all exercise trials (American College of Sports Medicine, 2000).
(§3) Procedures. Subjects reported to the laboratory on the day of testing following a 3 hr fast and having refrained from alcohol, caffeine and strenuous exercise the day before. Upon arrival at the laboratory, height and nude BM were measured and body water compartments were estimated using a Bodystat Multiscan 5000 Bioimpedance analyser (Bodystat Ltd, Isle of Man) (Van Loan, 1990). This method allows TBW and ECW to be estimated; from these measurements ICW can also be deduced. The bioimpedance measurements were taken while the subjects lay comfortably in a supine position on a non-conductive surface with their arms and legs slightly abducted. Following the bioimpedance measurement, a flexible rectal thermistor was inserted 10 cm beyond the anal sphincter to measure rectal temperature (Tre), an index of core temperature (Tc) and a heart rate (HR) monitor (Polar Sports Tester, Polar Electro Oy, Kempele, Finland) was attached. The subject's right hand and forearm were immersed in water at 42-44° C. for 15 min in order to allow for arterialisation of the venous blood (Forster at al. 1972). Following this, a 21 G cannula was introduced into a superficial vein on the dorsal surface of the heated hand. The subject was transferred to the climatic chamber (ambient temperature 30±1° C. with a relative humidity of 70±2% and air velocity of approximately 1.8 m·sec^−1) and seated on the cycle ergometer for 5 min. During this period thermistors (C8600 10 channel microprocessor, Comark, Hertfordshire, UK) were attached to the subject's chest, tricep, thigh and calf for the determination of weighted mean skin temperature (Tskin) (Ramanthan, 1964). The subject remained seated on the cycle ergometer for a further 1 min while resting HR, Tre, Tskin were recorded and a blood sample (10 ml) obtained. The venous cannula was kept patent by a 10 ml infusion of isotonic saline between samples. […]

[2] = Cycle exercise in the heat: 40 min constant load at 63% WRmax followed by 16.1 km time trial; assay type: in vivo, human; conditions: for Core temperature (Tc, rectal) during exercise post- vs pre-supplementation / Heart rate (HR) during exercise post- vs pre-supplementation: 30 C, 70% relative humidity; for RPE for breathlessness post- vs pre-supplementation / RPE for perceived leg fatigue post- vs pre-supplementation: Borg category scale; for Change in plasma volume (delta PV) during exercise post- vs pre-supplementation: calculated from Hb and PCV
Procedure: as §1, §2, §3

[3] = Side effects of the supplementation protocol; assay type: in vivo, human; conditions: 18 subjects
Text: as §2
Side effects. […] 3 subjects from each group correctly identified the subject group and 2 subjects correctly identified the Gly supplementation week, while, all other subjects were unsure of the treatment they received.

[4] = consumed with a substantial fluid intake; by reducing urinary volume; cited from earlier work
[5] = bioimpedance estimate after supplementation

Row | SMILES | Increase in TBW (estimated, on average) [1, 5] [mL] | Part of TBW increase accounted for by increase in ECW [1, 5] [mL] | Change in extracellular water (ECW) post- vs pre-supplementation [1] | Change in intracellular water (ICW) post- vs pre-supplementation [1] | Change in total body water (TBW) post- vs pre-supplementation [1] | Change in body mass (BM) post- vs pre-supplementation [1] | Core temperature (Tc, rectal) during exercise post- vs pre-supplementation [2] | Heart rate (HR) during exercise post- vs pre-supplementation [2] | RPE for breathlessness post- vs pre-supplementation [2] | RPE for perceived leg fatigue post- vs pre-supplementation [2] | Change in plasma volume (delta PV) during exercise post- vs pre-supplementation [2] | Side effects reported [3] | Fluid expansion or retention above a fluid bolus alone [4] [mL] | Increase in plasma volume (PV) ([1]; assuming 7.5% of the increase in TBW is plasma) | Part of TBW increase accounted for by increase in ICW [1, 5] [mL] | 16.1 km time trial performance ([2]; post- vs pre-supplementation)
1 | OCC(O)CO [Gly, glycerol] | 600 | 400 | increased significantly | no significant increase | increased significantly | increased significantly | not significantly different | significantly lower | no such effect | no such effect | not significantly different | only one report of gastrointestinal distress | ~600 | – | – | –
2 | CN(CC(=O)O)C(=N)N [Cr, methyl guanidine acetic acid] | 680 | – | increased significantly | increased significantly | increased significantly | increased significantly | significantly lower | significantly lower | Lower | Significantly lower | lower | – | – | approximately 51 ml | 500 | no effect
